# Where “and” joins values, the source holds several entries; their conditions need not be identical. Equal entries are not always repeated. Where two headings read alike, the source gives them in different places.
# How the values were obtained:
# [1] = test system: JAK3 (pSTAT5, lymph); assay: Pre-clinical human whole blood IL-2/pSTAT5 (20 min), lymphocytes; format: cell-based; conditions: for EC50: Homo sapiens, Lymphocyte
# [2] = test system: JAK1/2; assay: Cell IC50 JAK1/2 hPBMC IFNγ/pSTAT1; format: cell-based, human
# [3] = Phase 1 single ascending dose (SAD) study: pharmacokinetics, food effect, formulation bridging; format: in vivo, human; conditions: for AUC(0-t): read-out: AUC0-24; for Vd/F: read-out: Vz/F
# Protocol: Type of Study—This was an FIH, randomized, observer-blind, placebo-controlled study designed to evaluate the safety, tolerability, PK, and PD of Compound I in healthy subjects. The study consisted of: single ascending dose (SAD) cohorts (1-80 mg/day) plus formulation bridging and food effect (FE) cohorts.
# Approximately 64 male and female subjects were enrolled into 8 planned cohorts in the SAD study. In each cohort, a total of 8 subjects were randomized to receive a single oral capsule dose of Compound I (n=6) or placebo (n=2) in the morning with approximately 240 mL of water after an overnight fast of at least 8 hours.
# Cohort 4 was an FE (food effect) cohort where subjects received Compound I capsules or placebo, fasted on Day 1 and Compound I or placebo after a high-fat, high-calorie breakfast on Day 8 after a 7-day washout period.
# Cohort 5 was a formulation bridging cohort where subjects will receive Compound I capsules or placebo on Day 1 and Compound I tablets or placebo on Day 8 after a 7-day washout period.
# The dosage form of Compound I in Cohorts 6, 7, and 8 were capsules and the subjects will receive a single oral dose of Compound I (n=6) capsules or placebo (n=2) on Day 1 after an overnight fast of at least 8 hours.
# [4] = test system: ITK (IL2 mRNA); assay: Pre-clinical human whole blood αCD3/28/IL-2 mRNA (2 hr); format: cell-based
# [5] = both sexes, human, in vivo, po, 1 mg, single oral dose 1 mg, capsule, fasted
# [6] = both sexes, human, in vivo, po, 3 mg, single oral dose 3 mg, capsule, fasted
# [7] = both sexes, human, in vivo, po, 5 mg, single oral dose 5 mg, capsule, fasted
# [8] = both sexes, human, in vivo, po, 15 mg, single oral dose 15 mg, capsule, fasted
# [9] = both sexes, human, in vivo, po, 15 mg, single oral dose 15 mg, capsule, fed (high-fat, high-calorie breakfast)
# [10] = both sexes, human, in vivo, po, 25 mg, single oral dose 25 mg, capsule, fasted
# [11] = both sexes, human, in vivo, po, 25 mg, single oral dose 25 mg, tablet
# [12] = both sexes, human, in vivo, po, 50 mg, single oral dose 50 mg, capsule, fasted
# [13] = both sexes, human, in vivo, po, 80 mg, single oral dose 80 mg, capsule, fasted
# [14] = single oral dose 15 mg, capsule, fasted
# [15] = single oral dose 15 mg, capsule, fed (high-fat, high-calorie breakfast)
structure (smiles),measurement,setting,value
"C=CC(=O)N1C[C@H](Nc2ncnc3[nH]cc([C@H]4CC4(F)F)c23)CC[C@@H]1C [Compound I, 1-((2S,5R)-5-((5-((R)-2,2-difluorocyclopropyl)-7H-pyrrolo[2,3-d]pyrimidin-4-yl)amino)-2-methylpiperidin-1-yl)prop-2-en-1-one]","Potency relative to Ritlecitinib, IL-2/pSTAT5 (20 min)",[1],(1.2 fold*)
same,EC50,"[1]; 20 min, read-out: Human Whole Blood EC50, IL-2/pSTAT5 (20 min)",136 nM
same,EC50,[1]; read-out: Pre-clinical EC50,136 ± 51.2 nM
same,"Cell IC50, JAK1/2 hPBMC IFNγ/pSTAT1",[2],Inactive
same,Difference in PK parameters between capsule and tablet formulation,[3]; 25 mg single dose,No significant difference
same,Plasma concentration dose dependence,[3]; SAD,increased in a dose-dependent manner
same,Time to peak plasma concentration after dosing,[3]; SAD,≤ 2 h
same,Exposure dose proportionality (Cmax and AUC),"[3]; SAD, 1-80 mg single dose",dose-proportional
same,half-life,"[3]; both sexes, human, in vivo, oral, SAD, 1-80 mg single dose, read-out: Half-life (range across doses)",90 to 150 min
same,Tmax,"[3]; both sexes, human, in vivo, oral, SAD, 1-80 mg single dose, read-out: Tmax (range across doses)",0.7 to 1.2 h
same,AUC(0-inf),[3]; [5],5.95 ng·h/mL
same,Cmax,[3]; [5],2.71 ng/mL
same,AUC(0-t),[3]; [5],5.95 ng·h/mL
same,half-life,"[3]; both sexes, human, in vivo, po, 1 mg, single oral dose 1 mg, capsule, fasted, read-out: T1/2 (converted)",90.6 min
same,Tmax,"[3]; both sexes, human, in vivo, po, 1 mg, single oral dose 1 mg, capsule, fasted, read-out: Tmax",0.674 h
same,Vd/F,[3]; [5],384 L
same,AUC(0-inf),[3]; [6],15.8 ng·h/mL
same,Cmax,[3]; [6],5.9 ng/mL
same,AUC(0-t),[3]; [6],15.4 ng·h/mL
same,half-life,"[3]; both sexes, human, in vivo, po, 3 mg, single oral dose 3 mg, capsule, fasted, read-out: T1/2 (converted)",91.8 min
same,Tmax,"[3]; both sexes, human, in vivo, po, 3 mg, single oral dose 3 mg, capsule, fasted, read-out: Tmax",0.757 h
same,Vd/F,[3]; [6],419 L
same,AUC(0-inf),[3]; [7],33.5 ng·h/mL
same,Cmax,[3]; [7],11.9 ng/mL
same,AUC(0-t),[3]; [7],33.1 ng·h/mL
same,half-life,"[3]; both sexes, human, in vivo, po, 5 mg, single oral dose 5 mg, capsule, fasted, read-out: T1/2 (converted)",91.8 min
same,Tmax,"[3]; both sexes, human, in vivo, po, 5 mg, single oral dose 5 mg, capsule, fasted, read-out: Tmax",1.07 h
same,Vd/F,[3]; [7],331 L
same,AUC(0-inf),[3]; [8],96.7 ng·h/mL
same,Cmax,[3]; [8],31.5 ng/mL
same,AUC(0-t),[3]; [8],95.7 ng·h/mL
same,half-life,"[3]; both sexes, human, in vivo, po, 15 mg, single oral dose 15 mg, capsule, fasted, read-out: T1/2 (converted)",96.6 min
same,Tmax,"[3]; both sexes, human, in vivo, po, 15 mg, single oral dose 15 mg, capsule, fasted, read-out: Tmax",1 h
same,Vd/F,[3]; [8],360 L
same,AUC(0-inf),[3]; [9],93.9 ng·h/mL
same,Cmax,[3]; [9],17.6 ng/mL
same,AUC(0-t),[3]; [9],105 ng·h/mL
same,half-life,"[3]; both sexes, human, in vivo, po, 15 mg, single oral dose 15 mg, capsule, fed (high-fat, high-calorie breakfast), read-out: T1/2 (converted)",104 min
same,Tmax,"[3]; both sexes, human, in vivo, po, 15 mg, single oral dose 15 mg, capsule, fed (high-fat, high-calorie breakfast), read-out: Tmax",5 h
same,Vd/F,[3]; [9],399 L
same,AUC(0-inf),[3]; [10],154 ng·h/mL
same,Cmax,[3]; [10],47 ng/mL
same,AUC(0-t),[3]; [10],153 ng·h/mL
same,half-life,"[3]; both sexes, human, in vivo, po, 25 mg, single oral dose 25 mg, capsule, fasted, read-out: T1/2 (converted)",94.2 min
same,Tmax,"[3]; both sexes, human, in vivo, po, 25 mg, single oral dose 25 mg, capsule, fasted, read-out: Tmax",1.35 h
same,Vd/F,[3]; [10],366 L
same,AUC(0-inf),[3]; [11],199 ng·h/mL
same,Cmax,[3]; [11],63.6 ng/mL
same,AUC(0-t),[3]; [11],197 ng·h/mL
same,half-life,"[3]; both sexes, human, in vivo, po, 25 mg, single oral dose 25 mg, tablet, read-out: T1/2 (converted)",105 min
same,Tmax,"[3]; both sexes, human, in vivo, po, 25 mg, single oral dose 25 mg, tablet, read-out: Tmax",1.07 h
same,Vd/F,[3]; [11],317 L
same,AUC(0-inf),[3]; [12],428 ng·h/mL
same,Cmax,[3]; [12],143 ng/mL
same,AUC(0-t),[3]; [12],426 ng·h/mL
same,half-life,"[3]; both sexes, human, in vivo, po, 50 mg, single oral dose 50 mg, capsule, fasted, read-out: T1/2 (converted)",110 min
same,Tmax,"[3]; both sexes, human, in vivo, po, 50 mg, single oral dose 50 mg, capsule, fasted, read-out: Tmax",1.24 h
same,Vd/F,[3]; [12],310 L
same,AUC(0-inf),[3]; [13],676 ng·h/mL
same,Cmax,[3]; [13],196 ng/mL
same,AUC(0-t),[3]; [13],675 ng·h/mL
same,half-life,"[3]; both sexes, human, in vivo, po, 80 mg, single oral dose 80 mg, capsule, fasted, read-out: T1/2 (converted)",152 min
same,Tmax,"[3]; both sexes, human, in vivo, po, 80 mg, single oral dose 80 mg, capsule, fasted, read-out: Tmax",1.22 h
same,Vd/F,[3]; [13],432 L
same,"Effect of high-calorie, high-fat meal on AUC, bioavailability, T1/2",[3]; single 15 mg dose,no significant effect
same,"Reduction of Cmax by a high-calorie, high-fat meal",[3]; single 15 mg dose,31%
same,CL/F,"[3]; single oral dose 1 mg, capsule, fasted",168 L/h
same,CL/F,"[3]; single oral dose 3 mg, capsule, fasted",190 L/h
same,CL/F,"[3]; single oral dose 5 mg, capsule, fasted",149 L/h
same,CL/F,[3]; [14],155 L/h
same,Tmax,[3]; [14],1.09 h
same,CL/F,[3]; [15],160 L/h
same,Tmax,[3]; [15],4.99 h
same,CL/F,"[3]; single oral dose 25 mg, capsule, fasted",162 L/h
same,CL/F,"[3]; single oral dose 25 mg, tablet",126 L/h
same,CL/F,"[3]; single oral dose 50 mg, capsule, fasted",117 L/h
same,CL/F,"[3]; single oral dose 80 mg, capsule, fasted",118 L/h
same,"PK profile (linearity, absorption)",[3]; up to 80 mg single dose,PK was linear and absorption was fast
same,"Potency relative to Ritlecitinib, αCD3/28/IL-2 mRNA (2 hr)",[4],(35 fold*)
same,IC50,[4]; Homo sapiens,0.0077 µg/mL and 21.3 nM
same,EC50,"[4]; Homo sapiens, 2 h, read-out: Human Whole Blood EC50, αCD3/28/IL-2 mRNA (2 hr)",21 nM
same,EC50,"[4]; Homo sapiens, read-out: Pre-clinical EC50",21.3 ± 4.3 nM
